In general, EC50 refers to the concentration giving half of the maximal effect.

Data on 21 compounds can be found in US20250195511A1, “INDAZOLE DERIVATIVES USEFUL AS INHIBITORS OF NOD-LIKE RECEPTOR PROTEIN 3” (Merck Sharp & Dohme LLC, priority 2023, published 2025).

The assay relates to NLRP3 inflammasome. In words: NLRP3 inflammasome activation: ASC-SPECK formation in gramicidin-stimulated THP-1 cells. As to conditions: PMA-treated human monocytic THP-1 cells, compound 1 h before 12.5 μg/ml gramicidin, 3-hour treatment. The assay is classed as cell-based. The text has this: Activation of the canonical NLRP3 inflammasome requires two steps, priming and activation. A priming signal such as a pathogen activated molecular patterns (PAMPs) or danger-activated molecular patterns (DAMPs) are recognized by Toll-like receptors leads to nuclear factor kappa B (NF-KB)-mediated signaling. […] The second step is activation which induces oligomerization of NLRP3 and subsequent assembly of NLRP3, apoptosis-associated speck-like protein containing a CARD (ASC), and procaspase-1 into an inflammasome complex. This triggers the transformation of procaspase-1 to caspase-1, and the production and secretion of mature IL-1β and IL-18 (Kim et al., J. Inflamm. 2015, 12, 41; Ozaki et al., J. Inflamm. Res. 2015, 8, 15-27; Rabeony et al., Eur. J. Immunol. 2015, 45, 2847). During inflammasome complex assembly, the oligomerization of NLRP3 triggers the nucleation of ASC and an event commonly referred to as “ASC SPECK” formation, as it is identified in the cell as a discrete puncta within the cell after staining and visualization of ASC using common immunocytochemical methods.
The ability of compounds to inhibit NLRP3 inflammasome activation was determined in vitro by monitoring formation of the ASC-SPECK in human monocytic THP-1 cells after stimulation. THP-1 cells (ATCC catalog #TIB-202) were maintained in complete growth media containing Roswell Park Memorial Institute RPMI (ATCC catalog #30-2001), 10% heat inactivated fetal bovine serum, 1× penicillin/streptomycin and 0.05 mM 2-mercaptoethanol. At the start of the assay, undifferentiated THP-1 cells were plated at a density of 20,000 cells per well in a 384-well plate (Poly-D-lysine coated Cell Carrier Ultra microplate, Perkin Elmer catalog #6057500) in complete growth media supplemented with 10 ng/ml phorbol 12-myristate 13-acetate (PMA; Sigma catalog #P8139), and then incubated overnight. The next day, media was replaced with assay media (RPMI (Gibco catalog #11875-093), 0.01% bovine serum albumin (BSA)). Compounds were serially diluted in DMSO and then added to wells one hour prior to the addition of 12.5 μg/ml Gramicidin (Enzo Lifescience, catalog #ALX-350-233-M005). All incubations were carried out at 37° C. (5% CO2/95% air). Following a 3-hour treatment with gramicidin, cells are fixed with 4% paraformaldehyde and stored at 4° C. until immunofluorescence staining.
Immunofluorescence staining: Anti-ASC antibody (MBL catalog #D086-3) was desalted and labeled with Alexa 488 antibody labeling kit (Thermo catalog #A20181) prior to use as described below. After fixation, the following steps were carried out at rt. Cells were first permeabilized with 0.3% polyethylene glycol tert-octylphenyl ether (Triton X-100) in phosphate-buffered saline (PBS) for 15 minutes and then incubated in blocking buffer containing 5% goat serum, 0.3% polyethylene glycol sorbitan monolaurate (Tween-20) and 0.03% sodium azide in PBS for 1 hour. Cells were stained with a mixture of ASC-Alexa 488 antibody (diluted 1:200 in blocking buffer) and nuclear stain DRAQ5 (1:5000 in blocking buffer, Thermo catalog #62251) in blocking buffer for 1 hour. Following a wash with 0.3% polyethylene glycol sorbitan monolaurate (Tween-20) in PBS, plates were imaged with an Opera Phenix High Content Screening System. The number of DRAQ5 positive cells containing ASC SPECKS were quantified in each well.
Data analysis: EC50 values were calculated by standard curve-fitting analysis using an internally developed program in TIBCO Spotfire software.

Where [1] appears, read: inhibition of ASC SPECK formation.
Setting [2] is: Homo sapiens, THP-1, inhibition of ASC SPECK formation.

Turning to `Cc1cc(C(F)(F)F)cc(O)c1-c1cnc2cn([C@@H]3CCOC[C@@H]3C)nc2n1` (single isomer, unassigned) [Example 86, 3-methyl-2-(2-((3S,4S or 3R,4R)-3-methyltetrahydro-2H-pyran-4-yl)-2H-pyrazolo[3,4-b]pyrazin-6-yl)-5-(trifluoromethyl)phenol], the EC50 under setting [1] turned out to be 0.326 µM.

For the compound `Cc1cc(C(F)(F)F)cc(O)c1-c1cnc2cn([C@H]3CCOC[C@@H]3C)nc2n1` (single isomer, unassigned) [Example 87, 3-methyl-2-(2-((3R,4S or 3S,4R)-3-methyltetrahydro-2H-pyran-4-yl)-2H-pyrazolo[3,4-b]pyrazin-6-yl)-5-(trifluoromethyl)phenol], the EC50 under setting [2] amounted to 0.564 µM. For the compound `Cc1cc(C(F)(F)F)cc(O)c1-c1cnc2cn([C@H]3CCOC[C@@H]3C)nc2n1` (single isomer, unassigned) [Example 88, 3-methyl-2-(2-((3S,4R or 3R,4S)-3-methyltetrahydro-2H-pyran-4-yl)-2H-pyrazolo[3,4-b]pyrazin-6-yl)-5-(trifluoromethyl)phenol], the EC50 under setting [1] is 0.291 µM. The same measure, in the same setting: with `Cc1cc(C(F)(F)F)cc(O)c1-c1cnc2cn([C@H]3CCO[C@H](C)C3)nc2n1` (single isomer, unassigned) [Example 89, 3-methyl-2-(2-((2R,4S or 2S,4R)-2-methyltetrahydro-2H-pyran-4-yl)-2H-pyrazolo[3,4-b]pyrazin-6-yl)-5-(trifluoromethyl)phenol] the figure was 0.292 µM; with `Cc1cc(C(F)(F)F)cc(O)c1-c1cnc2cn([C@H]3CCO[C@H](C)C3)nc2n1` (single isomer, unassigned) [Example 90, 3-methyl-2-(2-((2S,4R or 2R,4S)-2-methyltetrahydro-2H-pyran-4-yl)-2H-pyrazolo[3,4-b]pyrazin-6-yl)-5-(trifluoromethyl)phenol], 0.101 µM. On to `Cc1cc(C(F)(F)F)cc(O)c1-c1cnc2cn(C34CCOCC3C4)nc2n1` (single isomer, unassigned) [Example 91, 2-(2-((1R,6S or 1S,6R)-3-oxabicyclo[4.1.0]heptan-6-yl)-2H-pyrazolo[3,4-b]pyrazin-6-yl)-3-methyl-5-(trifluoromethyl)phenol], for which, under setting [1], the concentration for a half-maximal effect (EC50) is 0.06 µM. For the compound `Cc1cc(C(F)(F)F)cc(O)c1-c1cnc2cn(C34CCOCC3C4)nc2n1` (single isomer, unassigned) [Example 92, 2-(2-((1S,6R or 1R,6S)-3-oxabicyclo[4.1.0]heptan-6-yl)-2H-pyrazolo[3,4-b]pyrazin-6-yl)-3-methyl-5-(trifluoromethyl)phenol], the EC50 under setting [1] was determined as 0.132 µM. Turning to `Cc1cc(C(F)(F)F)cc(O)c1-c1cnc2cn([C@H]3CCO[C@@H](C)C3)nc2n1` (single isomer, unassigned) [Example 93, 3-methyl-2-(2-((2S,4S or 2R,4R)-2-methyltetrahydro-2H-pyran-4-yl)-2H-pyrazolo[3,4-b]pyrazin-6-yl)-5-(trifluoromethyl)phenol], under setting [1], the EC50 was found to be 0.332 µM. Take `Cc1cc(C(F)(F)F)cc(O)c1-c1cnc2cn([C@H]3CCO[C@@H](C)C3)nc2n1` (single isomer, unassigned) [Example 94, 3-methyl-2-(2-((2R,4R or 2S,4S)-2-methyltetrahydro-2H-pyran-4-yl)-2H-pyrazolo[3,4-b]pyrazin-6-yl)-5-(trifluoromethyl)phenol]: under setting [1], the EC50 was 0.092 µM. On the same count and under the same terms, with `Cc1cc(C(F)(F)F)cc(O)c1-c1cnc2cn(C3CCOC(C)(C)C3)nc2n1` (single isomer, unassigned) [Example 95, (R or S)-2-(2-(2,2-dimethyltetrahydro-2H-pyran-4-yl)-2H-pyrazolo[3,4-b]pyrazin-6-yl)-3-methyl-5-(trifluoromethyl)phenol] the figure was 0.388 µM. On to `Cc1cc(C(F)(F)F)cc(O)c1-c1cnc2cn(C3CCOC(C)(C)C3)nc2n1` (single isomer, unassigned) [Example 96, (S or R)-2-(2-(2,2-dimethyltetrahydro-2H-pyran-4-yl)-2H-pyrazolo[3,4-b]pyrazin-6-yl)-3-methyl-5-(trifluoromethyl)phenol], for which, under setting [2], the EC50 came out at 0.235 µM. Regarding `Cc1cc(C(F)(F)F)cc(O)c1-c1cnc2cn(C3CCOCC3(C)C)nc2n1` (single isomer, unassigned) [Example 97, (R or S)-2-(2-(3,3-dimethyltetrahydro-2H-pyran-4-yl)-2H-pyrazolo[3,4-b]pyrazin-6-yl)-3-methyl-5-(trifluoromethyl)phenol], the EC50 under setting [1] stood at 0.683 µM. For `Cc1cc(C(F)(F)F)cc(O)c1-c1cnc2cn(C3CCOCC3(C)C)nc2n1` (single isomer, unassigned) [Example 98, (S or R)-2-(2-(3,3-dimethyltetrahydro-2H-pyran-4-yl)-2H-pyrazolo[3,4-b]pyrazin-6-yl)-3-methyl-5-(trifluoromethyl)phenol], the EC50 under setting [1] came out at 0.237 µM. In the case of `Cc1cc(C(F)(F)F)cc(O)c1-c1cnc2cn(C3CCOCC34CC4)nc2n1` (single isomer, unassigned) [Example 99, (R or S)-2-(2-(5-oxaspiro[2.5]octan-8-yl)-2H-pyrazolo[3,4-b]pyrazin-6-yl)-3-methyl-5-(trifluoromethyl)phenol], the EC50 under setting [1] worked out at 0.58 µM. On the same count and under the same terms, under `Cc1cc(C(F)(F)F)cc(O)c1-c1cnc2cn(C3CCOCC34CC4)nc2n1` (single isomer, unassigned) [Example 100, (S or R)-2-(2-(5-oxaspiro[2.5]octan-8-yl)-2H-pyrazolo[3,4-b]pyrazin-6-yl)-3-methyl-5-(trifluoromethyl)phenol] stands 0.169 µM. With `Cc1cc(C(F)(F)F)cc(O)c1-c1cnc2cn([C@H]3CCOC[C@H]3F)nc2n1` (single isomer, unassigned) [Example 101, 2-(2-((3S,4S or 3R,4R)-3-fluorotetrahydro-2H-pyran-4-yl)-2H-pyrazolo[3,4-b]pyrazin-6-yl)-3-methyl-5-(trifluoromethyl)phenol], the concentration giving a half-maximal response (EC50) under setting [1] was 0.117 µM. On to `Cc1cc(C(F)(F)F)cc(O)c1-c1cnc2cn([C@H]3CCOC[C@H]3F)nc2n1` (single isomer, unassigned) [Example 102, 2-(2-((3R,4R or 3S,4S)-3-fluorotetrahydro-2H-pyran-4-yl)-2H-pyrazolo[3,4-b]pyrazin-6-yl)-3-methyl-5-(trifluoromethyl)phenol], for which, under setting [1], the EC50 worked out at 0.314 µM. `Cc1cc(C(F)(F)F)cc(O)c1-c1cnc2cn([C@H]3CCOC[C@@H]3F)nc2n1` (single isomer, unassigned) [Example 103, 2-(2-((3R,4S or 3S,4R)-3-fluorotetrahydro-2H-pyran-4-yl)-2H-pyrazolo[3,4-b]pyrazin-6-yl)-3-methyl-5-(trifluoromethyl)phenol]: the EC50 under setting [2] is 0.321 µM. Regarding `Cc1cc(C(F)(F)F)cc(O)c1-c1cnc2cn([C@H]3CCOC[C@@H]3F)nc2n1` (single isomer, unassigned) [Example 104, 2-(2-((3S,4R or 3R,4S)-3-fluorotetrahydro-2H-pyran-4-yl)-2H-pyrazolo[3,4-b]pyrazin-6-yl)-3-methyl-5-(trifluoromethyl)phenol], the EC50 under setting [1] amounted to 0.291 µM. For the compound `Cc1cc(C(F)(F)F)cc(O)c1-c1cnc2cn(C3CCOCC3(F)F)nc2n1` (single isomer, unassigned) [Example 105, (R or S)-2-(2-(3,3-difluorotetrahydro-2H-pyran-4-yl)-2H-pyrazolo[3,4-b]pyrazin-6-yl)-3-methyl-5-(trifluoromethyl)phenol], under setting [2], the EC50 is 0.433 µM.

Consider `Cc1cc(C(F)(F)F)cc(O)c1-c1cnc2c(C)n(C3CCC(=O)N(C)C3)nc2n1` (single isomer, unassigned) [Example 106, (S or R)-5-(6-(2-hydroxy-6-methyl-4-(trifluoromethyl)phenyl)-3-methyl-2H-pyrazolo[3,4-b]pyrazin-2-yl)-1-methylpiperidin-2-one], for which the concentration for a half-maximal effect (EC50) under setting [2] was found to be 0.191 µM.
